Source: PubChem BioAssay (NCI)
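Test compounds were applied to cells in 96-well plates for 48 hours at 5 doses. At the TGI there is no net growth.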

Assays:
Experiment in all cases: NCI anticancer screen, dose series, 48 h
DU-145 prostate = test system: DU-145 prostate
ACHN renal = test system: ACHN renal
MDA-N = test system: MDA-N
U251 CNS = test system: U251 CNS
HCT-116 colon = test system: HCT-116 colon
MDA-MB-231 breast = test system: MDA-MB-231 breast
SK-MEL-2 melanoma = test system: SK-MEL-2 melanoma
SNB-19 CNS = test system: SNB-19 CNS
786-0 renal = test system: 786-0 renal
TK-10 renal = test system: TK-10 renal
RPMI-8226 leukemia = test system: RPMI-8226 leukemia
K-562 leukemia = test system: K-562 leukemia
SW-620 colon = test system: SW-620 colon
SF-539 CNS = test system: SF-539 CNS
NCI/ADR-RES ovarian = test system: NCI/ADR-RES ovarian
MOLT-4 leukemia = test system: MOLT-4 leukemia
NCI-H522 lung = test system: NCI-H522 lung
MCF7 breast = test system: MCF7 breast
M14 melanoma = test system: M14 melanoma
SK-OV-3 ovarian = test system: SK-OV-3 ovarian
CCRF-CEM leukemia = test system: CCRF-CEM leukemia
NCI-H460 lung = test system: NCI-H460 lung
T-47D breast = test system: T-47D breast
SF-268 CNS = test system: SF-268 CNS
HOP-92 NSCLC = test system: HOP-92 NSCLC
NCI-H226 lung = test system: NCI-H226 lung
NCI-H23 lung = test system: NCI-H23 lung
RXF 393 renal = test system: RXF 393 renal
UO-31 renal = test system: UO-31 renal
BT-549 breast = test system: BT-549 breast
SK-MEL-5 melanoma = test system: SK-MEL-5 melanoma
OVCAR-8 ovarian = test system: OVCAR-8 ovarian
OVCAR-4 ovarian = test system: OVCAR-4 ovarian
UACC-257 melanoma = test system: UACC-257 melanoma
KM12 colon = test system: KM12 colon
HCT-15 colon = test system: HCT-15 colon
HOP-62 NSCLC = test system: HOP-62 NSCLC
MDA-MB-435 = test system: MDA-MB-435
A549 NSCLC = test system: A549 NSCLC
HL-60(TB) leukemia = test system: HL-60(TB) leukemia
A498 renal = test system: A498 renal
SR leukemia = test system: SR leukemia
OVCAR-5 ovarian = test system: OVCAR-5 ovarian
LOX IMVI melanoma = test system: LOX IMVI melanoma
CAKI-1 renal = test system: CAKI-1 renal
SF-295 CNS = test system: SF-295 CNS
HT29 colon = test system: HT29 colon
IGROV1 ovarian = test system: IGROV1 ovarian
SN12C renal = test system: SN12C renal
UACC-62 melanoma = test system: UACC-62 melanoma
OVCAR-3 ovarian = test system: OVCAR-3 ovarian
EKVX NSCLC = test system: EKVX NSCLC
SK-MEL-28 melanoma = test system: SK-MEL-28 melanoma
MALME-3M melanoma = test system: MALME-3M melanoma
COLO 205 colon = test system: COLO 205 colon
PC-3 prostate = test system: PC-3 prostate
HCC-2998 colon = test system: HCC-2998 colon
SNB-75 CNS = test system: SNB-75 CNS

CCN(CC)c1ccc2cc(-c3nc4ccccc4n3C)c(=O)oc2c1
TGI (DU-145 prostate): > 24.2 µM
TGI (ACHN renal): > 100 µM
TGI (MDA-N): 0.135 µM
TGI (U251 CNS): > 41.9 µM
TGI (HCT-116 colon): > 100 µM
TGI (MDA-MB-231 breast): > 54.3 µM
TGI (SK-MEL-2 melanoma): 0.68 µM
TGI (SNB-19 CNS): > 100 µM
TGI (786-0 renal): > 48.7 µM
TGI (TK-10 renal): > 100 µM
TGI (RPMI-8226 leukemia): > 31.6 µM
TGI (K-562 leukemia): > 100 µM
TGI (SW-620 colon): > 100 µM
TGI (SF-539 CNS): 0.545 µM
TGI (NCI/ADR-RES ovarian): 0.727 µM
TGI (MOLT-4 leukemia): > 100 µM
TGI (NCI-H522 lung): 0.661 µM
TGI (MCF7 breast): > 100 µM
TGI (M14 melanoma): > 100 µM
TGI (SK-OV-3 ovarian): 43.6 µM
TGI (CCRF-CEM leukemia): > 100 µM
TGI (NCI-H460 lung): 4.36 µM
TGI (T-47D breast): > 100 µM
TGI (SF-268 CNS): > 100 µM
TGI (HOP-92 NSCLC): > 100 µM
TGI (NCI-H226 lung): 1.46 µM
TGI (NCI-H23 lung): 29.3 µM
TGI (RXF 393 renal): 63.1 µM
TGI (UO-31 renal): > 100 µM
TGI (BT-549 breast): 0.861 µM
TGI (SK-MEL-5 melanoma): 3.42 µM
TGI (OVCAR-8 ovarian): > 100 µM
TGI (OVCAR-4 ovarian): > 100 µM
TGI (UACC-257 melanoma): > 100 µM
TGI (KM12 colon): > 100 µM
TGI (HCT-15 colon): > 100 µM
TGI (HOP-62 NSCLC): 29.8 µM
TGI (MDA-MB-435): 0.334 µM
TGI (A549 NSCLC): > 100 µM
TGI (HL-60(TB) leukemia): > 100 µM
TGI (A498 renal): 0.187 µM
TGI (SR leukemia): > 100 µM
TGI (OVCAR-5 ovarian): > 100 µM
TGI (LOX IMVI melanoma): > 100 µM
TGI (CAKI-1 renal): > 100 µM
TGI (SF-295 CNS): > 100 µM
TGI (HT29 colon): 11 µM
TGI (IGROV1 ovarian): 4.79 µM
TGI (SN12C renal): > 100 µM

c1ccc(P2c3ccccc3Nc3ccccc32)cc1
TGI (DU-145 prostate): > 100 µM
TGI (ACHN renal): > 100 µM
TGI (MDA-N): > 100 µM
TGI (U251 CNS): > 100 µM
TGI (HCT-116 colon): > 100 µM
TGI (MDA-MB-231 breast): > 100 µM
TGI (SK-MEL-2 melanoma): > 100 µM
TGI (UACC-62 melanoma): > 100 µM
TGI (SNB-19 CNS): > 100 µM
TGI (786-0 renal): > 100 µM
TGI (TK-10 renal): > 100 µM
TGI (K-562 leukemia): > 100 µM
TGI (SW-620 colon): > 100 µM
TGI (SF-539 CNS): > 100 µM
TGI (NCI/ADR-RES ovarian): > 100 µM
TGI (MOLT-4 leukemia): 58.7 µM
TGI (NCI-H522 lung): > 100 µM
TGI (MCF7 breast): > 100 µM
TGI (M14 melanoma): > 100 µM
TGI (SK-OV-3 ovarian): > 100 µM
TGI (CCRF-CEM leukemia): 72 µM
TGI (NCI-H460 lung): > 100 µM
TGI (OVCAR-3 ovarian): 47.3 µM
TGI (T-47D breast): > 100 µM
TGI (SF-268 CNS): > 100 µM
TGI (EKVX NSCLC): > 100 µM
TGI (SK-MEL-28 melanoma): > 100 µM
TGI (HOP-92 NSCLC): 97.4 µM
TGI (NCI-H226 lung): > 100 µM
TGI (NCI-H23 lung): > 100 µM
TGI (RXF 393 renal): > 100 µM
TGI (UO-31 renal): > 100 µM
TGI (MALME-3M melanoma): > 100 µM
TGI (SK-MEL-5 melanoma): 82.5 µM
TGI (COLO 205 colon): > 100 µM
TGI (PC-3 prostate): 87.1 µM
TGI (OVCAR-8 ovarian): > 100 µM
TGI (OVCAR-4 ovarian): > 100 µM
TGI (UACC-257 melanoma): > 100 µM
TGI (HCC-2998 colon): > 100 µM
TGI (KM12 colon): > 100 µM
TGI (HCT-15 colon): > 100 µM
TGI (HOP-62 NSCLC): > 100 µM
TGI (SNB-75 CNS): 71 µM
TGI (MDA-MB-435): > 100 µM
TGI (A549 NSCLC): > 100 µM
TGI (HL-60(TB) leukemia): 55.8 µM
TGI (A498 renal): 76.6 µM
TGI (SR leukemia): 49.4 µM
TGI (OVCAR-5 ovarian): > 100 µM
TGI (LOX IMVI melanoma): > 100 µM
TGI (CAKI-1 renal): > 100 µM
TGI (SF-295 CNS): > 100 µM
TGI (HT29 colon): > 100 µM
TGI (IGROV1 ovarian): > 100 µM
TGI (SN12C renal): > 100 µM

CC(=O)OCc1cc(=O)n2c([nH]c3ccccc32)c1C#N
TGI (DU-145 prostate): > 100 µM
TGI (ACHN renal): > 100 µM
TGI (MDA-N): > 100 µM
TGI (U251 CNS): > 100 µM
TGI (HCT-116 colon): > 100 µM
TGI (MDA-MB-231 breast): > 100 µM
TGI (SK-MEL-2 melanoma): > 100 µM
TGI (UACC-62 melanoma): > 100 µM
TGI (SNB-19 CNS): > 100 µM
TGI (786-0 renal): > 100 µM
TGI (TK-10 renal): > 100 µM
TGI (K-562 leukemia): > 100 µM
TGI (SW-620 colon): > 100 µM
TGI (SF-539 CNS): > 100 µM
TGI (NCI/ADR-RES ovarian): > 100 µM
TGI (MOLT-4 leukemia): > 100 µM
TGI (MCF7 breast): > 100 µM
TGI (M14 melanoma): > 100 µM
TGI (SK-OV-3 ovarian): > 100 µM
TGI (CCRF-CEM leukemia): > 100 µM
TGI (NCI-H460 lung): 64.8 µM
TGI (OVCAR-3 ovarian): > 100 µM
TGI (T-47D breast): > 100 µM
TGI (EKVX NSCLC): > 100 µM
TGI (SK-MEL-28 melanoma): > 100 µM
TGI (HOP-92 NSCLC): > 100 µM
TGI (NCI-H226 lung): > 100 µM
TGI (NCI-H23 lung): > 100 µM
TGI (RXF 393 renal): > 100 µM
TGI (UO-31 renal): > 100 µM
TGI (BT-549 breast): > 100 µM
TGI (MALME-3M melanoma): > 100 µM
TGI (SK-MEL-5 melanoma): > 100 µM
TGI (COLO 205 colon): > 100 µM
TGI (PC-3 prostate): > 100 µM
TGI (OVCAR-8 ovarian): > 100 µM
TGI (OVCAR-4 ovarian): 60.9 µM
TGI (UACC-257 melanoma): > 100 µM
TGI (HCC-2998 colon): > 100 µM
TGI (HCT-15 colon): > 100 µM
TGI (A549 NSCLC): > 100 µM
TGI (HL-60(TB) leukemia): > 100 µM
TGI (A498 renal): > 100 µM
TGI (OVCAR-5 ovarian): > 100 µM
TGI (LOX IMVI melanoma): > 100 µM
TGI (CAKI-1 renal): > 100 µM
TGI (SF-295 CNS): > 100 µM
TGI (HT29 colon): > 100 µM
TGI (IGROV1 ovarian): > 100 µM
TGI (SN12C renal): > 100 µM
